Experimental data: a melting point compilation (Tetko et al.; mined from patent text by program, amines drawn as free bases though some values may be those of a salt)

Structure (SMILES)	melting point
CCCCCNC(=O)n1cc(F)c(N)nc1=O	289 to 292 °C
CC(=O)Nc1ccc(OC2SCC(OC(C)=O)C(OC(C)=O)C2OC(C)=O)cc1 (configuration not stated)	166 °C
CCOC(=O)C(CC)(CC)CCS(N)(=O)=O	93 to 94 °C
Cc1c(C(F)(F)F)nc(C(F)(F)F)c(C(=O)O)c1O	155 to 159 °C
CCCCCCCCOC(=O)/C(C#N)=C/C=C/N(C)C	80 to 81 °C
COCCOc1cc(NC(=O)OC(C)(C)C)c(NC(=O)CC(=O)c2cccc(C#N)c2)cc1C#Cc1ccccc1	175 to 176 °C
CCOC(=O)c1cn(C2CC2)c2c(CSCC)c(N3CCOCC3)c(F)cc2c1=O	165 to 167 °C
COC(=O)C(C(=O)OC)c1ccc(Br)cc1	77 to 79 °C
N#Cc1cnc2cc(/C=C/c3ccncc3)sc2c1Nc1ccc(Oc2ccccc2)cc1	240 to 241 °C
CCC1(C)CC(=O)C(C(=O)Nc2cc(C(F)(F)F)cc(C(F)(F)F)c2)C(=O)C1 (configuration not stated)	72 to 73 °C
CCCc1c(OCC(O)CS(=O)(=O)c2ccc(CC(=O)OC)c(Cl)c2Cl)ccc(C(C)=O)c1O (configuration not stated)	122 to 125 °C
CCn1cc(F)c(N=CN(C)C)nc1=O	157 to 160 °C
Nc1nc(NC2CCCC2)c2ncn(C3C=CC(CO)C3)c2n1 (configuration not stated)	143 to 146 °C
CC(C)(C)C(=O)CN1CCNC1=N[N+](=O)[O-]	158 to 159 °C
[N-]=[N+]=NCCCc1ccc(C(=O)O)s1	71 to 72 °C
CC(COc1ccc(CCO)cc1)NCC(O)c1ccccc1 (configuration not stated)	93 to 96 °C
CC1CC2(CC3CCC4C5CCC(=O)C5(C)CCC4C13C)OCCO2 (configuration not stated)	154 °C
CC(=O)N[C@H]1C(n2cc(Cl)cnc2=O)O[C@H](COC(C)=O)[C@@H](OC(C)=O)[C@@H]1OC(C)=O (some centres not stated)	165 to 167 °C

Structure (SMILES)	melting point
NC1(CCC(O)(P(=O)(O)O)P(=O)(O)O)CCCCC1	143 °C
N[C@@H](Cc1ccc(N(CCCl)CCCl)cc1)C(=O)N[C@@H](Cc1cccc(C2CCCC2)c1)C(=O)O	80 to 90 °C
O=C(O)c1cc(Cl)c(F)c(Cl)c1F	179 °C
CC(CC(=O)NC(Cc1c[nH]c2ccccc12)C(=O)CCc1cc(C(F)(F)F)cc(C(F)(F)F)c1)c1ccccc1 (configuration not stated)	133 to 137 °C
O=C(Nc1ccc(O)c(O)c1)C12CC3CC(CC(C3)C1)C2	196 to 199 °C
O=C(OCc1ccccc1)N1CCC(O)(c2ccc(C(F)(F)F)cc2)CC1	102 °C
O=C(O)COc1cc(Cl)ccc1C(=O)NCc1ccc(Cl)cc1	184 to 186 °C
O=C(NCCO)/C(=C/c1ccc(C(F)(F)F)c(F)c1)NC(=O)c1ccc(OCCC(F)(F)F)cc1	185 to 186 °C
Nc1c(Br)cc(Nc2ncnc3cnc(N4CCC(N)CC4)nc23)cc1Br	204 to 206 °C
O=C(Nc1ccc(F)cc1)N1CCc2cc(S(=O)(=O)N3CCN(c4cccc(Cl)c4)CC3)ccc21	192 to 194 °C
CC(C)(C)c1nn(C(C)(C)C)c(N)c1C#N	78 to 80 °C
CC12CCC=CC1=CCC1C2CCC2(C)C(c3cccnc3)=CCC12 (configuration not stated)	110 to 112 °C
COc1ccc(F)c(C(=O)O)c1	144 to 146 °C
Cc1ccc(S(=O)(=O)OCC2COC(C(F)(F)F)(C(F)(F)F)O2)cc1 (configuration not stated)	57 to 58.5 °C
CC(C)(C)OC(=O)CC(C#N)c1ccc(Cl)c(Cl)c1 (configuration not stated)	67 °C
O=C(Nc1nnn[nH]1)c1c(C(F)(F)F)nc2c(C(F)(F)F)cccc2c1O	> 260 °C
Cc1cc(N)c([N+](=O)[O-])cc1NCC(O)CO (configuration not stated)	150 °C
OC(COc1cccc2[nH]ccc12)CN1CCC(c2c[nH]c3cc(F)ccc23)CC1 (single isomer, unassigned; (+))	94 to 97 °C

Other lines, results leading:

melting point	Structure (SMILES)
65 to 70 °C	COC(=O)c1ccc(OCCNC(=O)C2Cc3ccccc3N2S(=O)(=O)c2ccc(-c3cccc(C(F)(F)F)c3)cc2)c(F)c1 (configuration not stated)
94 to 95 °C	CC(C)(C)OC(=O)N1CCC(C(=O)c2nc3ccccc3s2)CC1
71 to 73 °C	Cc1cc(C#N)cc(C)c1OCCCc1cncs1
98 to 100 °C	Fc1cc2c(-c3cccs3)c(CBr)cnc2c(F)c1F
130 °C	Cn1nc(-c2ccc(Cl)cc2)cc1N=Cc1ccsc1
195 to 196 °C	Nc1cc(=O)n(Cc2cc(Cl)ccc2Cl)[nH]1
63 to 67 °C	CCCCC1=NC(NC(=O)C2(NC(=O)CCC(C)C)CCCC2)C(=O)N(Cc2ccccn2)c2ccccc21 (configuration not stated)
135 to 138 °C	COc1ccc(COc2cccnc2N)c(F)c1
204 to 205 °C	O=C(O)CCc1oc(-n2ncc3ccccc32)nc1-c1ccc(Cl)cc1
186 to 187 °C	COCc1nc2c(NCc3c(C)cccc3C)cc(C(=O)NCCO)cc2n1C
255 °C	Cc1c(Nc2c(C#N)cnc3sccc23)ccc2[nH]ccc12
188 °C	COc1ccc(-c2csc(Nc3ccccc3C(F)(F)F)n2)cc1OC
167 to 168 °C	C#CCOc1ccc2c(c1)c(-c1ccc(C(C)C)cc1)nc(=O)n2Cc1cccc([N+](=O)[O-])c1
105 to 115 °C	CCOC(=O)Cc1coc2c(OC)ccc(C(=O)Cc3c(Cl)cncc3Cl)c12
260 °C	CCN(CC)CCC(=O)NC1c2ccccc2-c2[nH]c(=O)c3nccn3c21 (configuration not stated)
258 to 260 °C	NCc1nc(-c2ccc(-c3cnc4[nH]c(=O)n(CCC5CCOCC5)c4n3)cc2)n[nH]1
208 to 210 °C	COc1cc(-c2ccccc2C(F)(F)F)c(Cl)cc1C(=O)N1Cc2cccn2Cc2ccccc21
204 to 206 °C	Cc1ccn2c(C)c(-c3ccc4sc(=O)n(C)c4c3)nc2c1

melting point	Structure (SMILES)
139 °C	COc1ccc(Cc2cc(C(C)(C)C)c(O)c(C(C)(C)C)c2)cc1
136 °C	CSc1nnc(-c2ccc(Cl)nc2)s1
186 to 187 °C	COc1cccc(-c2nc3n(n2)Cc2cc(OC)c(OC)cc2-3)c1
299 to 302 °C	O=C1c2cccc([N+](=O)[O-])c2C(=O)c2cccc(O)c21
72 to 78 °C	Cc1nnc(COc2ccc(OCC(C)Oc3ccccn3)cc2)s1 (configuration not stated)
187 to 189 °C	O=c1c(-c2ccccc2)ccc2n1CCc1sccc1-2
78 to 80 °C	CCCOCCOc1cccc2oc(C(=O)N3CCN(C)CC3)cc(=O)c12
125 to 126 °C	COc1cc2c(cc1OC)C(CCN1CCN(c3cccc(Cl)c3)CC1)OCCC2 (configuration not stated)
197 to 198 °C	COCCOc1cc2ncnc(NC3=CC(=O)C(N(C)c4ccc(OC)cc4)=CC3=O)c2cc1OC
61.5 to 63 °C	CNc1cc(F)ccc1C(=O)CSC
298 to 303 °C	Nc1cc(-n2ccc(=O)cc2)ccc1[N+](=O)[O-]
156 to 160 °C	COc1cc(C)c(C(=O)c2c(Cl)cccc2Cl)cc1[N+](=O)[O-]
234 to 236 °C	CCc1[nH]c(=O)[nH]c1C(O)c1ccncc1 (configuration not stated)
165 °C	Fc1ccc(Cn2c(NC3CCN(CCNc4nccs4)CC3)nc3cncnc32)cc1
310 to 312 °C	O=C1OC(=O)c2cc3ccc(C(F)(F)F)cc3c3cccc1c23
224 to 225 °C	NC(=O)c1n[nH]c2c(=O)[nH]c3cc(Cl)ccc3c(=O)c12
136 to 138 °C	C=Cc1cc(-c2ccc(S(C)(=O)=O)cc2)n(CC2CCCCC2)n1
247 to 249 °C	COC(=O)Nc1cn2cc(Sc3ccccc3)ccc2n1
